This is an account of results in patent publication US20150030583A1, “Methods of Treating Serosal Cancer” (SLOAN KETTERING INSTITUTE FOR CANCER RESEARCH, priority 2011, published 2015).

Data set [1] concerns catena cells. Kind of data set: Growth of catena cells upon disruption of the glycocalyx. The data set is classed as cell-based. How it is done: To investigate the how catena cells grow upon disruption of the glycocalyx, catenae were dissociated to single cells with hyaluronidase treatment and plated in tissue culture treated flasks with or without 10% hyaluronidase enzyme solution (10 mg/ml) to prevent the formation of glycocalyx. In parallel, catenae were dissociated mechanically and plated in the absence of hyaluronidase.

In data set [2] the test system is catena cells. Kind of data set: Morphological observation of treated catenae under the microscope. The data set is classed as cell-based. As to conditions: microscope observation; listed as non-PEGylated hyaluronidase.
Data set [3] can be described thus: Viscosity of catena culture supernatant after enzyme treatment. As to conditions: a few drops 10 mg/mL enzyme. How it is done: In contrast, Ovcar3-GTL epithelial cells were 98% positive for CA125 by FACS and secreted 800 units/ml of CA125 into culture media. For the ELISA, cell supernatants were collected by spinning the cultures at 300×g for 5 min to remove cells and assayed by CA125 ELISA using an automated instrument, ADVIA Centaur XP Immunoassay System (Siemens Healthcare Diagnostics Inc.).
Hyaluronan is a glycosaminoglycan found in extracellular matrix and functions to provide microenvironmental cues in a number of biological processes, including tumor development [Toole, 2004]. Supernatants prepared as above were treated with a few drops 10 mg/mL hyaluronidase (Sigma) in deionized water.

Data set [4] relates to glycocalyx surrounding a catena. Kind of data set: Particle exclusion experiment with red blood cells. The data set is classed as cell-based. As to conditions: brief incubation with enzyme, RBCs overnight. Here is the method:
To visualize the glycocalyx surrounding a catena, a particle exclusion experiment was conducted using red blood cells (RBCs). Catenae were mechanically dissociated by pipetting or by brief incubation with hyaluronidase as before. RBCs from human peripheral blood were added and the mixture was incubated overnight in culture media. The cells were observed under the light microscope for the presence of a glycocalyx separating catena cells from the RBCs.

For data set [5], the system named is catena cells. Kind of data set: In vitro clonogenicity assay of catena cells. The format is cell-based. As to conditions: enzyme included in the clonogenic assay; attached cells. The text has this:
Catena cells were dissociated with hyaluronidase, allowed to attach to tissue culture plates and grown in the presence hyaluronidase for 7 days. Under these conditions, cells remained attached to tissue culture plates. The cells were harvested and subjected to an in vitro clonogenicity assay in the presence and absence of hyaluronidase. In parallel, mechanically-dissociated catena were subjected to the in vitro clonogenicity assay in the presence and absence of hyaluronidase.

Data set [6] concerns low molecular weight complex of collagen and hyaluronan. Kind of data set: Western blot (anti-COL1A2) of catena culture supernatant. The format is biochemical. The text has this:
The glycocalyx of the catena has two major components, i.e., hyaluronan and collagen, which interact and form a stable complex. […] Briefly, the supernatant fraction of catena cell cultures was separated from the cells by centrifugation. The supernatant was run in an SDS-PAGE gel and blotted with the anti-COL1A2 antibody. This complex was sensitive to hyaluronidase treatment but was not affected by collagenase type 1, 2 or 4 treatment. This hyaluronan-collagen complex could be important for the formation of catena glycocalyx and drug resistance or metastatic potential conferred to catena cells by the glycocalyx.

Take hyaluronidase: the “growth of catena cells, continuous enzyme treatment” value in the data set on catena cells [1] (10% enzyme solution (10 mg/ml) in culture) is “attached to tissue culture plates and formed epithelial and mesenchymal monolayers”. The “growth of catena cells, brief enzyme treatment, plated without enzyme” value with catena cells [1] (dissociated to single cells with enzyme) is listed as “no longer formed free floating chains but rather proliferated as irregular aggregates in suspension”. Further, the “morphological change of treated catenae” value in the data set on catena cells [2] is “caused aggregation of catena cells”. In data set [3], the “viscosity of culture supernatant” value is recorded as “rapidly reduced the viscosity”. In addition, in data set [4], the “glycocalyx coat in RBC particle exclusion” value is recorded as “completely lacked a glycocalyx”. Further, the “colony size in clonogenic assay” value with catena cells [5] was “further reduced”. In data set [6], the “effect on hyaluronan-collagen complex (less than 20 kDa)” value is reported as “sensitive”.
